What was measured:
Type in all cases: in vivo
C57BL/6 mice [1] = experiment: Gross pathology and histopathology (testes degeneration, bone marrow cellularity) after whole-body irradiation; parameters: key to Supporting variable: Bone marrow celluarity (trend) / Supporting variable: Testes degradation (trend): positive trend (descriptively) +; negative trend (descriptively) −; no difference (descriptively) 0
C57BL/6 mice [2] = experiment: Mortality / survival to Day 30 after whole-body irradiation (5.8 Gy or 6.0 Gy)
From the text: Based on a previously reported study (Williams et al. 2010, Plett et al. 2012, Chua et al. 2014, Singh et al., 2015), the mouse model was developed to investigate LD25 and LD50. The whole-body irradiation and selected dose serve as a translational in vivo model mimicking possible radiation exposure to humans following a nuclear incident.
Animals (C57BL/6 mice) were supplied by Jackson Laboratories (Bar Harbor, Me. facility). Animals were maintained at SNBL USA (Everett, Wash. facility) as stock prior to study assignment and were screened for health by veterinary staff prior to use on study. 205 animals were assigned to treatment groups.
Oral application of Myelo001 would be conducive for nuclear or other radiation incidents and was chosen for this study. […] The human equivalent dose is estimated to be 4 mg/kg based on allometric calculations.
Based on the ARS Scoring SNBL SOP, if the sum of the three parameter scores totaled 8 or higher, the animal was considered moribund and was euthanized with an unscheduled necropsy performed according to the moribund animal SOP.
Cageside mortality checks were conducted per SOP, twice daily after Day −3. Morning and afternoon checks began 2 to 3 hours after the completion of the respective ARS scorings. Individual assessments were only documented for apparently moribund animals by re-scoring, or for found dead animals by removal.
Survival data were summarized descriptively and graphically using the Kaplan-Meier method. Further, death rates were tabulated by treatment. The equality of two or more survivor curves was tested with log rank tests. In addition, Cox-regression models were used to estimate hazard ratios, p-values and 95% confidence intervals (95% CI).
The focus of the survival analysis is irradiation related death between irradiation on Day 0 and Day 30. Thus, the scheduled necropsies on Day 7 and Day 14 or deaths unrelated to radiation (Animals 2041, 9012 and 9021) were considered as censored events.

C57BL/6 mice [3] = experiment: Peripheral hematology after whole-body irradiation; parameters: key to Supporting variable: Hematology (trend): positive trend (descriptively) +; negative trend (descriptively) −; no difference (descriptively) 0
From the text: The primary outcome of this study was mortality and secondary outcomes were changes in hematology (peripheral and bone marrow). The endpoints were chosen to follow Animal Rule requirements that state that animal study endpoint be clearly related to the clinical benefit (generally, the enhancement of survival or prevention of major morbidity). The secondary endpoints were chosen to potentially contribute to an understanding of the disease or condition and a characterization of the treatment effect.

[4] = Group 3 ML (IPx2): 25 mg/kg IP, Day −3 to 0 (6x), prophylactic, 5.8 Gy
[5] = Group 4 ML (POx2): 25 mg/kg per os, Day −3 to 0 (6x), prophylactic, 5.8 Gy
[6] = Group 5 ML (POx1): 50 mg/kg per os SID Day −2, −1, 0, prophylactic, 5.8 Gy
[7] = Group 9 MH (POx1): 50 mg/kg per os SID Day 1, 2, 3, therapeutic, 6.0 Gy

SMILES: O=C(O)CCCC(=O)NCCc1c[nH]cn1 [Myelo001, 5-{[2-(1H-imidazol-4-yl)ethyl]amino}-5-oxo-pentanoic acid]
- Supporting variable: Testes degradation (trend) (C57BL/6 mice [1]; [4]): +
- decrease of bone marrow cellularity (C57BL/6 mice [1]; [5]): did not show any significant changes
- Supporting variable: Bone marrow celluarity (trend) (C57BL/6 mice [1]; [6]): −
- decrease of bone marrow cellularity (C57BL/6 mice [1]; [6]): did not show any significant changes
- Supporting variable: Bone marrow celluarity (trend) (C57BL/6 mice [1]; [7]): +
- organ weights data (C57BL/6 mice [1]; all test article groups): no test article-related changes
- Dead (irradiation related deaths) (C57BL/6 mice [2]; [4]): 3
- Irradiation related death rate, Rate (per 100 Days) (C57BL/6 mice [2]; [4]): 1.30 per 100 Days
- Survival after 30 days (Kaplan-Meier estimate) (C57BL/6 mice [2]; [4]): 0.54
- Time at Risk (C57BL/6 mice [2]; [4]): 231 days
- Time to 10% death, Time (C57BL/6 mice [2]; [4]): 13 days
- Hazard ratio (Cox regression, risk of radiation induced death) (C57BL/6 mice [2]; Group 3 ML (IPx2): 25 mg/kg IP, Day −3 to 0 (6x), prophylactic, 5.8 Gy, reference group VL (POx1), 2): 2.48
- Quantity ratio of survival probability (dose reduction factor, DRF), day 30, relative to control group (C57BL/6 mice [2]; Group 3 ML (IPx2): 25 mg/kg IP, Day −3 to 0 (6x), prophylactic, 5.8 Gy, vs VL (POx1), 2): 0.7
- Dead (irradiation related deaths) (C57BL/6 mice [2]; [5]): 6
- Irradiation related death rate, Rate (per 100 Days) (C57BL/6 mice [2]; [5]): 0.96 per 100 Days
- Time at Risk (C57BL/6 mice [2]; [5]): 627 days
- Time to 10% death, Time (C57BL/6 mice [2]; [5]): 15 days
- Hazard ratio (Cox regression, risk of radiation induced death) (C57BL/6 mice [2]; Group 4 ML (POx2): 25 mg/kg per os, Day −3 to 0 (6x), prophylactic, 5.8 Gy, reference group VL (POx1), 2): 1.49
- Dead (irradiation related deaths) (C57BL/6 mice [2]; [6]): 3
- Irradiation related death rate, Rate (per 100 Days) (C57BL/6 mice [2]; [6]): 0.44 per 100 Days
- Time at Risk (C57BL/6 mice [2]; [6]): 680 days
- Time to 10% death, Time (C57BL/6 mice [2]; [6]): 21 days
- Hazard ratio (Cox regression, risk of radiation induced death) (C57BL/6 mice [2]; Group 5 ML (POx1): 50 mg/kg per os SID Day −2, −1, 0, prophylactic, 5.8 Gy, reference group VL (POx1), 2): 0.64
- Dead (irradiation related deaths) (C57BL/6 mice [2]; [7]): 3
- Irradiation related death rate, Rate (per 100 Days) (C57BL/6 mice [2]; [7]): 0.48 per 100 Days
- Time at Risk (C57BL/6 mice [2]; [7]): 611 days
- Time to 10% death, Time (C57BL/6 mice [2]; [7]): 23 days
- survival (C57BL/6 mice [2]; Group 9 MH (POx1): 50 mg/kg per os SID Day 1, 2, 3, therapeutic, 6.0 Gy (LD50/30), control Group 8 56%): 86%
- Hazard ratio (Cox regression, risk of radiation induced death) (C57BL/6 mice [2]; Group 9 MH (POx1): 50 mg/kg per os SID Day 1, 2, 3, therapeutic, 6.0 Gy, reference group VH (POx1), 8): 0.32
- hemoglobin, red blood cells, hematocrit compared to group 8 (C57BL/6 mice [3]; Day 14 and Day 30, Group 9 MH (POx1): 50 mg/kg per os SID Day 1, 2, 3, therapeutic, 6.0 Gy): in favor of group 9
- Supporting variable: Hematology (trend) (C57BL/6 mice [3]; [5]): 0

Reference: patent publication US20210275498A1, “IMIDAZOLYL ETHANAMIDE PENTANDIOIC ACID FOR USE IN THERAPY OF SYMPTOMS RELATED TO EXPOSURE TO LETHAL RADIATION” (priority 2018, published 2021)
